From the CheMixHub ionic liquid set

Experiment: xn = mol fraction of the nth substance listed

CCCCCC[n+]1ccn(C)c1.[Cl-] + CCCCCO
101 kPa
Conditions	viscosity [mPa·s]
293.15 K, x1 = 0.0088	4.33
293.15 K, x2 = 0.849	10.53
303.15 K, x1 = 0.0042	3.1
303.15 K, x1 = 0.0166	3.41
303.15 K, x2 = 0.1514	1675
313.15 K, x1 = 0.0042	2.37
313.15 K, x2 = 0.2971	259.6
313.15 K, x2 = 0.8012	8.12
323.15 K, x2 = 0	783
323.15 K, x2 = 0.8012	6.29
333.15 K, x2 = 0.7018	9.13

c1c[nH]cn1 + CC[n+]1ccn(C)c1.[Cl-]
298.2 K, 100 kPa
Conditions	viscosity [mPa·s]
x2 = 0.25	38.7
x2 = 0.5	82.5

CCCCCC[n+]1ccn(C)c1.[Cl-] + CN1CCCC1=O
100 kPa
Conditions	viscosity [mPa·s]
293.15 K, x2 = 0.4223	288
298.15 K, x2 = 0.2211	1042
298.15 K, x2 = 0.3181	467
298.15 K, x2 = 0.5271	92.7
298.15 K, x2 = 0.718	19.13
298.15 K, x2 = 0.8139	8.49
303.15 K, x2 = 0.4223	152
308.15 K, x2 = 0.2211	481
308.15 K, x2 = 0.718	13.69
308.15 K, x2 = 0.8139	6.46
313.15 K, x2 = 0.6327	21.54
313.15 K, x2 = 0.718	11.59
313.15 K, x2 = 0.9083	2.78
323.15 K, x2 = 0.3181	102.2
323.15 K, x2 = 0.4223	54.5
328.15 K, x2 = 0.4223	44.4
328.15 K, x2 = 0.718	7.66
333.15 K, x2 = 0.9083	2.041

O=P([O-])([O-])[O-].[Na+].[Na+].[Na+] + CCCCCCCCCCCC[N+](C)(C)C.[Br-] + O
298.15 K, 101 kPa
Conditions	electrical conductivity [S/m]
x2 = 0, x1 = 0.0001802	0.411
x2 = 0, x1 = 0.001799	2.052
x2 = 5.23e-06, x1 = 0.0001802	0.411
x2 = 7.86e-06, x1 = 0.001799	2.048
x2 = 1.209e-05, x1 = 0.0001802	0.4123
x2 = 1.591e-05, x1 = 0.001799	2.047
x2 = 1.895e-05, x1 = 0.0001802	0.4139
x2 = 2.633e-05, x1 = 0.001799	2.047
x2 = 2.887e-05, x1 = 0.0001802	0.4171
x2 = 3.573e-05, x1 = 0.0001802	0.4194
x2 = 3.912e-05, x1 = 0.001799	2.048
x2 = 4.223e-05, x1 = 0.0001802	0.4213
x2 = 4.89e-05, x1 = 0.0001802	0.4235
x2 = 5.21e-05, x1 = 0.001799	2.049
x2 = 5.756e-05, x1 = 0.0001802	0.4261
x2 = 6.605e-05, x1 = 0.0001802	0.429
x2 = 6.673e-05, x1 = 0.001799	2.051
x2 = 7.416e-05, x1 = 0.0001801	0.4318
x2 = 8.172e-05, x1 = 0.001799	2.054
x2 = 8.246e-05, x1 = 0.0001801	0.4346
x2 = 9.058e-05, x1 = 0.0001801	0.4375
x2 = 9.852e-05, x1 = 0.0001801	0.4405
x2 = 9.872e-05, x1 = 0.001799	2.059
x2 = 0.000107, x1 = 0.0001801	0.444
x2 = 0.0001133, x1 = 0.001799	2.063
x2 = 0.0001155, x1 = 0.0001801	0.4477
x2 = 0.0001247, x1 = 0.0001801	0.4515
x2 = 0.0001301, x1 = 0.001799	2.067
x2 = 0.0001324, x1 = 0.0001801	0.4544
x2 = 0.0001404, x1 = 0.0001801	0.4573
x2 = 0.000147, x1 = 0.001798	2.07
x2 = 0.000148, x1 = 0.0001801	0.4602
x2 = 0.0001566, x1 = 0.0001801	0.4633
x2 = 0.0001632, x1 = 0.001798	2.074
x2 = 0.0001658, x1 = 0.0001801	0.4669
x2 = 0.000175, x1 = 0.0001801	0.4702
x2 = 0.0001791, x1 = 0.001798	2.078
x2 = 0.0001842, x1 = 0.0001801	0.4735
x2 = 0.0001934, x1 = 0.0001801	0.4766
x2 = 0.0001954, x1 = 0.001798	2.081
x2 = 0.0002026, x1 = 0.0001801	0.4791
x2 = 0.0002111, x1 = 0.001798	2.083
x2 = 0.0002116, x1 = 0.0001801	0.481
x2 = 0.0002205, x1 = 0.0001801	0.4824
x2 = 0.0002268, x1 = 0.001798	2.086
x2 = 0.0002327, x1 = 0.0001801	0.4842
x2 = 0.0002427, x1 = 0.001798	2.089
x2 = 0.0002436, x1 = 0.0001801	0.4857
x2 = 0.0002524, x1 = 0.0001801	0.4866
x2 = 0.0002579, x1 = 0.001798	2.091
x2 = 0.0002612, x1 = 0.0001801	0.4876
x2 = 0.0002726, x1 = 0.0001801	0.489
x2 = 0.0002731, x1 = 0.001798	2.094
x2 = 0.0002851, x1 = 0.0001801	0.4902
x2 = 0.0002866, x1 = 0.001798	2.096
x2 = 0.0002984, x1 = 0.0001801	0.4919
x2 = 0.0003017, x1 = 0.001798	2.099
x2 = 0.0003094, x1 = 0.0001801	0.4931
x2 = 0.0003171, x1 = 0.001798	2.101
x2 = 0.0003315, x1 = 0.001798	2.103
x2 = 0.0003393, x1 = 0.0001801	0.4959
x2 = 0.0003465, x1 = 0.001798	2.105
x2 = 0.0003608, x1 = 0.001798	2.108
x2 = 0.0003754, x1 = 0.001798	2.11
x2 = 0.0003895, x1 = 0.001798	2.112
x2 = 0.000403, x1 = 0.001798	2.114
x2 = 0.0004205, x1 = 0.001798	2.117
